Measured values reported in BindingDB's records for doi:10.1016/j.bmcl.2005.04.079 (F. Hoffmann-La Roche, 2005).

Target: T1, Serine protease 1 (Bos taurus, UniProt P00760)
T1 sequence (P00760 whole entry): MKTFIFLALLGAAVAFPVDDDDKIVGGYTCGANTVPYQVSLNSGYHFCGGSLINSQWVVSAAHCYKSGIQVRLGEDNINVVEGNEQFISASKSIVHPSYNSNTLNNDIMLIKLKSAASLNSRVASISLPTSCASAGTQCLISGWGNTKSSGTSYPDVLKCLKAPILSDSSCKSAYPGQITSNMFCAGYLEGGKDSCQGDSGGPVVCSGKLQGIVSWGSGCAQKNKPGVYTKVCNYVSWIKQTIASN
Assay: Serine Protease Inhibition Assay
Procedure: The enzyme reactions were initiated by the addition of substrate, and the color developed from the release of p-nitroanilide from each chromogenic substrate was monitored continuously for 5 min at 405 nm on a microtiter plate reader. […] The apparent Ki values were then calculated according to the Cheng-Prusoff equation: Ki = IC50/1 + [S]/Km.

CCOc1cc(-c2ccccc2)cc(C(Nc2ccc(C(=N)N)cc2)C(=O)O)c1 (stereo unspecified) [2-[(4-carbamimidoylphenyl)amino]-2-(3-ethoxy-5-phenylphenyl)acetic acid] gave a Ki greater than 68 µM.
